Test results published in patent US6767897B2, “Therapeutic uses of tri-, tetra-, penta-, and polypeptides” (Innapharma, Inc., priority 1994, dated 2004).
Residues, ends and D or L forms follow the SMILES beside them.

What was measured:
[1] = rat, in vivo, sc
[2] = system: animal models for depression; conditions: in vivo; cited from earlier work

Molecule | levels found in the hippocampus and the amygdala [1] | activity in animal models for depression [2]
4-F-Phe-cis- or trans-4-OH-Pro-Arg-Gly-Trp-NH2 [SEQ ID NO:43] | found at detectable levels and substantially unchaged in the hippocampus and the amygdala | 
CC(C)C[C@H](NC(=O)[C@@H]1CCCN1)C(=O)NCC(N)=O [MIF, prolyl-leucyl-glycinamide] (H-Pro-Leu-Gly-NH2) |  | active in a number of animal models for depression
